Test results from a compilation of properties of binary mixtures (doi:10.1016/j.molliq.2020.112489).

Assay: xn = mol fraction of the nth substance listed
Settings: 101 kPa

CC[n+]1ccn(C)c1.O=C([O-])C(F)(F)C(F)(F)C(F)(F)C(F)(F)F + O
viscosity [mPa·s]
Settings | 298.15 K | 308.15 K | 318.15 K
x1 = 0.0222 | – | 2.016 | –
x1 = 0.0264 | 2.88 | 2.221 | 1.773
x1 = 0.0311 | 3.36 | – | 2.036
x1 = 0.0364 | 3.86 | 2.91 | 2.271
x1 = 0.0428 | 4.62 | – | 2.64
x1 = 0.0496 | 5.3 | 3.92 | 3.01
x1 = 0.0581 | 5.96 | 4.37 | 3.35
x1 = 0.067 | 6.84 | 4.93 | 3.7
x1 = 0.0727 | 7.23 | 5.22 | 3.93
x1 = 0.0857 | 8.38 | – | 4.5
x1 = 0.1009 | – | 7.34 | 5.4
x1 = 0.133 | 12.96 | 9.04 | 6.58
x1 = 0.1458 | 13.63 | – | –
x1 = 0.1625 | 14.99 | 10.35 | –
x1 = 0.1788 | 16.31 | 11.24 | 8.1
x1 = 0.201 | 17.94 | – | 8.85
x1 = 0.2367 | – | 14.29 | 10.22
x1 = 0.262 | 22.43 | – | 10.88
x1 = 0.3007 | 25.2 | – | 12.16
x1 = 0.4265 | – | 24.3 | 17.06
x1 = 0.7012 | 73.6 | 46.9 | 31.8
x1 = 1 | 107.5 | 65.9 | 43.1

Cn1cc[n+](CCO)c1.O=S(=O)([O-])C(F)(F)C(F)(F)C(F)(F)C(F)(F)F + O
Settings | electrical conductivity, 298.15 K [S/m] | viscosity, 298.15 K [mPa·s] | viscosity, 308.15 K [mPa·s] | viscosity, 318.15 K [mPa·s]
x1 = 0.0178 | 4.26 | 2.036 | 1.632 | 1.344
x1 = 0.0195 | 4.4 | 2.133 | 1.689 | 1.381
x1 = 0.0212 | 4.52 | 2.326 | 1.847 | 1.517
x1 = 0.0232 | – | – | 1.972 | –
x1 = 0.0253 | 4.75 | 2.66 | 2.104 | 1.719
x1 = 0.0274 | – | – | 2.2 | 1.77
x1 = 0.0297 | 4.91 | 3.09 | 2.42 | 1.975
x1 = 0.0321 | 4.97 | 3.3 | 2.6 | –
x1 = 0.0348 | 5 | 3.56 | 2.78 | 2.227
x1 = 0.0376 | 5.1 | 3.7 | 2.87 | 2.274
x1 = 0.0405 | 5.1 | 4.19 | 3.25 | 2.58
x1 = 0.0438 | 5.2 | 4.43 | – | –
x1 = 0.0474 | 5.2 | 4.87 | 3.73 | 2.95
x1 = 0.0511 | – | – | 4.07 | 3.2
x1 = 0.0551 | 5.2 | 5.75 | 4.36 | 3.42
x1 = 0.0596 | – | – | 4.76 | –
x1 = 0.0644 | 5.1 | 6.82 | – | 3.98
x1 = 0.07 | 5.1 | 7.66 | – | 4.42
x1 = 0.0756 | 5 | 8.21 | – | 4.67
x1 = 0.0824 | 4.88 | 9.23 | 6.8 | 5.16
x1 = 0.0899 | 4.73 | 10.36 | – | 5.75
x1 = 0.0983 | – | – | 8.34 | –
x1 = 0.1075 | 4.31 | 12.91 | 9.29 | 6.93
x1 = 0.1178 | 4.05 | 14.88 | 10.63 | 7.86
x1 = 0.1302 | 3.73 | 16.91 | – | –
x1 = 0.1441 | 3.39 | 19.81 | – | 10.06
x1 = 0.1621 | 2.98 | 23.25 | 16.05 | 11.56
x1 = 0.1816 | – | – | 18.72 | 13.38
x1 = 0.2068 | 2.13 | 32.1 | – | 15.23
x1 = 0.2329 | 1.74 | 38.8 | 25.7 | –
x1 = 0.2751 | 1.26 | 50.6 | 32.8 | 22.44
x1 = 0.3277 | 0.85 | 63.8 | 40.6 | 27.4
x1 = 0.3954 | 0.52 | 87.1 | – | 35.4
x1 = 0.5075 | 0.241 | 133.7 | 79.6 | 50.5
x1 = 0.6777 | – | – | 143.5 | 86.8
x1 = 1 | 0.033 | 832 | 411 | 224
